In ChEMBL document CHEMBL4507279, “Data for DCP probe BI-9627” (2021):

Columns and labels:
Conditions in all cases: Compound concentration 1000.0 nM
[1] = tested on: Tyrosine-protein kinase ABL1 (Homo sapiens), P00519 [F317I]
[2] = target: ALK tyrosine kinase receptor (Homo sapiens) (UniProt Q9UM73)
[3] = tested on: ALK tyrosine kinase receptor (Homo sapiens), Q9UM73 [L1196M]
[4] = target: Calcium/calmodulin-dependent protein kinase type II subunit alpha (Homo sapiens) (UniProt Q9UQM7)
[5] = target: Cyclin-dependent kinase-like 1 (Homo sapiens) (UniProt Q00532)
[6] = target: Casein kinase I isoform gamma-2 (Homo sapiens) (UniProt P78368)
[7] = target: Mitogen-activated protein kinase kinase kinase 12 (Homo sapiens) (UniProt Q12852)
[8] = target: Ephrin type-A receptor 1 (Homo sapiens) (UniProt P21709)
[9] = target: Ephrin type-A receptor 5 (Homo sapiens) (UniProt P54756)
[10] = target: Mitogen-activated protein kinase 3 (Homo sapiens) (UniProt P27361)
[11] = target: Mitogen-activated protein kinase 1 (Homo sapiens) (UniProt P28482)
[12] = target: Mitogen-activated protein kinase 4 (Homo sapiens) (UniProt P31152)
[13] = target: Mitogen-activated protein kinase 15 (Homo sapiens) (UniProt Q8TD08)
[14] = target: Serine/threonine-protein kinase/endoribonuclease IRE1 (Homo sapiens) (UniProt O75460)
[15] = target: Tyrosine-protein kinase Fgr (Homo sapiens) (UniProt P09769)
[16] = tested on: Receptor-type tyrosine-protein kinase FLT3 (Homo sapiens), P36888 [D835H]
[17] = target: G protein-coupled receptor kinase 3 (Homo sapiens) (UniProt P35626)
[18] = target: Interleukin-1 receptor-associated kinase 1 (Homo sapiens) (UniProt P51617)
[19] = tested on: Mast/stem cell growth factor receptor Kit (Homo sapiens), P10721 [D816V]
[20] = target: LIM domain kinase 2 (Homo sapiens) (UniProt P53671)
[21] = target: Serine/threonine-protein kinase 10 (Homo sapiens) (UniProt O94804)
[22] = target: Leukocyte tyrosine kinase receptor (Homo sapiens) (UniProt P29376)
[23] = target: MAP kinase-activated protein kinase 2 (Homo sapiens) (UniProt P49137)
[24] = target: Dual specificity mitogen-activated protein kinase kinase 7 (Homo sapiens) (UniProt O14733)
[25] = target: Serine/threonine-protein kinase 4 (Homo sapiens) (UniProt Q13043)
[26] = target: Serine/threonine-protein kinase 24 (Homo sapiens) (UniProt Q9Y6E0)
[27] = target: Serine/threonine-protein kinase 26 (Homo sapiens) (UniProt Q9P289)
[28] = target: Serine/threonine-protein kinase Nek10 (Homo sapiens) (UniProt Q6ZWH5)
[29] = target: Serine/threonine-protein kinase Nek9 (Homo sapiens) (UniProt Q8TD19)
[30] = target: Calcium-dependent protein kinase 1 (Plasmodium falciparum) (UniProt P62344)
[31] = target: Cyclin-dependent kinase 14 (Homo sapiens) (UniProt O94921)
[32] = tested on: Phosphatidylinositol 4,5-bisphosphate 3-kinase catalytic subunit alpha isoform (Homo sapiens), P42336 [C420R]
[33] = target: cAMP-dependent protein kinase catalytic subunit alpha (Homo sapiens) (UniProt P17612)
[34] = target: Serine/threonine-protein kinase D3 (Homo sapiens) (UniProt O94806)
[35] = target: RAF proto-oncogene serine/threonine-protein kinase (Homo sapiens) (UniProt P04049)
[36] = target: Serine/threonine-protein kinase RIO1 (Homo sapiens) (UniProt Q9BRS2)
[37] = target: Ribosomal protein S6 kinase alpha-3 (Homo sapiens) (UniProt P51812)
[38] = target: Ribosomal protein S6 kinase alpha-2 (Homo sapiens) (UniProt Q15349)
[39] = target: Proto-oncogene tyrosine-protein kinase Src (Homo sapiens) (UniProt P12931)
[40] = target: SRSF protein kinase 3 (Homo sapiens) (UniProt Q9UPE1)
[41] = target: Mitogen-activated protein kinase kinase kinase 7 (Homo sapiens) (UniProt O43318)
[42] = target: Serine/threonine-protein kinase TAO2 (Homo sapiens) (UniProt Q9UL54)
[43] = target: Tyrosine-protein kinase Tec (Homo sapiens) (UniProt P42680)
[44] = target: Angiopoietin-1 receptor (Homo sapiens) (UniProt Q02763)
[45] = target: TRAF2 and NCK-interacting protein kinase (Homo sapiens) (UniProt Q9UKE5)

Measured: residual activity

Chain of Ribosomal protein S6 kinase alpha-2 (Homo sapiens) (Q15349 whole entry): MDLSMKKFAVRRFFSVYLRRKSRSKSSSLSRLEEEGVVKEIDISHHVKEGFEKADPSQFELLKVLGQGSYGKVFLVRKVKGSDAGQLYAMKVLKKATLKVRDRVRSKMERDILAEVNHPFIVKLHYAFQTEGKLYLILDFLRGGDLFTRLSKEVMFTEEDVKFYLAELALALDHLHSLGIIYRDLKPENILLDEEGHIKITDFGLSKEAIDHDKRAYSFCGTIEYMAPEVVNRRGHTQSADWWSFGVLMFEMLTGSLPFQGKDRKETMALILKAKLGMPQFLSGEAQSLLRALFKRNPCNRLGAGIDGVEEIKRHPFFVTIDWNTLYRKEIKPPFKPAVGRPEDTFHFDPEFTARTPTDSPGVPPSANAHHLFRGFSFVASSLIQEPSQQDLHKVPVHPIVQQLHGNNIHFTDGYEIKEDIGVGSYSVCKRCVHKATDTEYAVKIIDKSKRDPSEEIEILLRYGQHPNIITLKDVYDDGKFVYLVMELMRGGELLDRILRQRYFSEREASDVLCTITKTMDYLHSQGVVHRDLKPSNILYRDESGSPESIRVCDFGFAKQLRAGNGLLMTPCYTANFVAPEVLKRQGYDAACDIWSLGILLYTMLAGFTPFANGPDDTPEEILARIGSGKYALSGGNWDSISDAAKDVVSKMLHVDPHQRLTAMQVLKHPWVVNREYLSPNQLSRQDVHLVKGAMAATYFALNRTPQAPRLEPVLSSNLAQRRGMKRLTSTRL
Chain of Mitogen-activated protein kinase 3 (Homo sapiens) (P27361 whole entry): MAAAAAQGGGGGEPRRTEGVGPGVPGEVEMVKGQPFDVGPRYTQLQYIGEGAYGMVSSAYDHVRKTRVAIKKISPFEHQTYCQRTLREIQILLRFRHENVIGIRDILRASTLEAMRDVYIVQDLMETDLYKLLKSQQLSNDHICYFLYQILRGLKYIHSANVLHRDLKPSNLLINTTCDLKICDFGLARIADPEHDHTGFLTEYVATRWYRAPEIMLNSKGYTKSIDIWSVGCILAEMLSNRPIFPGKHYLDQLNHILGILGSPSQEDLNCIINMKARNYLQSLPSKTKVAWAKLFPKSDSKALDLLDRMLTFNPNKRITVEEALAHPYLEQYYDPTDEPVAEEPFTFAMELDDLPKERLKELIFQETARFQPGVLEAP
Chain of Casein kinase I isoform gamma-2 (Homo sapiens) (P78368 whole entry, looked up, canonical isoform): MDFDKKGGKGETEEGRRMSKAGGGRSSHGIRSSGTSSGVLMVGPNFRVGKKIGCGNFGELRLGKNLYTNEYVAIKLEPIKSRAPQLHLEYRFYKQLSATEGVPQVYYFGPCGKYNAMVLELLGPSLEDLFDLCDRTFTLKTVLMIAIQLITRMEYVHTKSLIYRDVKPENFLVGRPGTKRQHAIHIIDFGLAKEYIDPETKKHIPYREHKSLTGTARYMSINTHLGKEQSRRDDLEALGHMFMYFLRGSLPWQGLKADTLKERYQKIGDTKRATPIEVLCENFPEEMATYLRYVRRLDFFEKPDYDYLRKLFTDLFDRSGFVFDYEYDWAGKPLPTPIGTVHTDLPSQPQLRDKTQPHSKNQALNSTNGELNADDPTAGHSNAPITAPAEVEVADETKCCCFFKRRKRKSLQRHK
Chain of SRSF protein kinase 3 (Homo sapiens) (Q9UPE1 whole entry): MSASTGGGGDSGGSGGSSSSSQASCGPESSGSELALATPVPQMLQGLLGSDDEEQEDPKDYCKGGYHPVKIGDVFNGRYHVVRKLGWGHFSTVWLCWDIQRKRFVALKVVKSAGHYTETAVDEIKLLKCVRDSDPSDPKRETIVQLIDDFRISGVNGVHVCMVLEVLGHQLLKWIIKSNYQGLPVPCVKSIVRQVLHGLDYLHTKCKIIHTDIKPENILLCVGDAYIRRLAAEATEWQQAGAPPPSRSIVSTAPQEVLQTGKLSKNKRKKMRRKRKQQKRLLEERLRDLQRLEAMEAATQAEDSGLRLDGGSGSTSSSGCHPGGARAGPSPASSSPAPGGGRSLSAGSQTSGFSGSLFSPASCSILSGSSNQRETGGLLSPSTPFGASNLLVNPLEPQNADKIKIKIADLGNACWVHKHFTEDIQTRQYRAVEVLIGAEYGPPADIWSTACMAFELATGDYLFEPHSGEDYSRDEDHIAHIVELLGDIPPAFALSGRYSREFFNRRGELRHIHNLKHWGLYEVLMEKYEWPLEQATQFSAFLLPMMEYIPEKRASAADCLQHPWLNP
Chain of Dual specificity mitogen-activated protein kinase kinase 7 (Homo sapiens) (O14733 whole entry): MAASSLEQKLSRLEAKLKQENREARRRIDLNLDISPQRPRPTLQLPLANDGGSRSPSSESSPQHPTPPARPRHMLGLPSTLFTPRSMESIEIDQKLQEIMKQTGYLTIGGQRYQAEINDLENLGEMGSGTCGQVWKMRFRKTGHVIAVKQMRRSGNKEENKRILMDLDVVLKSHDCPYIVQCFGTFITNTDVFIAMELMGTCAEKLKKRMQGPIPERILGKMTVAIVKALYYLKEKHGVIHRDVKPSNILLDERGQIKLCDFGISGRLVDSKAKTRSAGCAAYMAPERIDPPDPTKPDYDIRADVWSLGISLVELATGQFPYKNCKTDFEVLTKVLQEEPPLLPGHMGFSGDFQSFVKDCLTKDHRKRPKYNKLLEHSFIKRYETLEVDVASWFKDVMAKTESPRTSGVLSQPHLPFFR
Chain of Serine/threonine-protein kinase 10 (Homo sapiens) (O94804 whole entry, looked up): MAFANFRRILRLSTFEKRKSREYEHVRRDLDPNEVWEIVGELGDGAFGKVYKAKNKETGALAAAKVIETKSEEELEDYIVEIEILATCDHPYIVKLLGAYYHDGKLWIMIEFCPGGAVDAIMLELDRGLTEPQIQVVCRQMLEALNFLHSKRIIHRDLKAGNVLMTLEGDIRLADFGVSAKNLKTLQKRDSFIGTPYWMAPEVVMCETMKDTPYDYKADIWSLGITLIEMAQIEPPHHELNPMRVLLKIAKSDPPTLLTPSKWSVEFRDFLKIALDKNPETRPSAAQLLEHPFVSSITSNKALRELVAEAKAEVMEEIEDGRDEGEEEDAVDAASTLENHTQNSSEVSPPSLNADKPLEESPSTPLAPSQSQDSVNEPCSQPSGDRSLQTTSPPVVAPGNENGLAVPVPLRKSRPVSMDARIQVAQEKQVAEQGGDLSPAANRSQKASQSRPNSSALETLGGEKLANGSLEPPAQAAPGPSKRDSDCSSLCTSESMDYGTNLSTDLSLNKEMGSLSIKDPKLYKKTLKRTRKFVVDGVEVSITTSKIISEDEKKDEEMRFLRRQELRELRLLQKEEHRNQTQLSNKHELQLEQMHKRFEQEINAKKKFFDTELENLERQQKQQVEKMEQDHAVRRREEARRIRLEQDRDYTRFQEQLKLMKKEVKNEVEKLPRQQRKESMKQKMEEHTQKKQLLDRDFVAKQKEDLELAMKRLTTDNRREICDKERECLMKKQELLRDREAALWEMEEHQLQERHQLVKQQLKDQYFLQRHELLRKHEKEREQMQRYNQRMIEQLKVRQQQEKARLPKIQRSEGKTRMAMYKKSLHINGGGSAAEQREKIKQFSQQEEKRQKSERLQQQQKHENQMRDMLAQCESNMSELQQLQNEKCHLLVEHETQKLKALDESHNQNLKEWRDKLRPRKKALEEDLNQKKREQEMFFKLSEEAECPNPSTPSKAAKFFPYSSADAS
Chain of Interleukin-1 receptor-associated kinase 1 (Homo sapiens) (P51617 whole entry, looked up): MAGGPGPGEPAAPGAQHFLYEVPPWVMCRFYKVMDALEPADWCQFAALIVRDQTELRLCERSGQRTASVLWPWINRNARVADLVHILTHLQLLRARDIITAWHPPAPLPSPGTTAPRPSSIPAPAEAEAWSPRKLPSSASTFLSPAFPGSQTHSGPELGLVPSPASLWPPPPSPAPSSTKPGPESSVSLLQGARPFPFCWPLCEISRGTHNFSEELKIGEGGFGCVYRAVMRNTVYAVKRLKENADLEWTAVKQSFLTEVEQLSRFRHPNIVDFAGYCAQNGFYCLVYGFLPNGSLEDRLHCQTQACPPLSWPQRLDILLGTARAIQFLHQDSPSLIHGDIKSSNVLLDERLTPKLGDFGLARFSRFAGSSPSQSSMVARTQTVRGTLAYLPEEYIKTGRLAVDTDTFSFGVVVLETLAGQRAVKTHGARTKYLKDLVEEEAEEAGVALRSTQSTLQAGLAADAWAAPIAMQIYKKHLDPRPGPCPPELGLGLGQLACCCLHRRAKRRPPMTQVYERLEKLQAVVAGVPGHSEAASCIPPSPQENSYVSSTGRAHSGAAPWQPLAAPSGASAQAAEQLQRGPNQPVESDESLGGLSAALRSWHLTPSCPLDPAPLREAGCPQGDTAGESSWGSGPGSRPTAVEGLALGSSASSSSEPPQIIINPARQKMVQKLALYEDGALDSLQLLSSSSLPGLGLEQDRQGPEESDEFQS
Chain of Mitogen-activated protein kinase kinase kinase 12 (Homo sapiens) (Q12852 whole entry): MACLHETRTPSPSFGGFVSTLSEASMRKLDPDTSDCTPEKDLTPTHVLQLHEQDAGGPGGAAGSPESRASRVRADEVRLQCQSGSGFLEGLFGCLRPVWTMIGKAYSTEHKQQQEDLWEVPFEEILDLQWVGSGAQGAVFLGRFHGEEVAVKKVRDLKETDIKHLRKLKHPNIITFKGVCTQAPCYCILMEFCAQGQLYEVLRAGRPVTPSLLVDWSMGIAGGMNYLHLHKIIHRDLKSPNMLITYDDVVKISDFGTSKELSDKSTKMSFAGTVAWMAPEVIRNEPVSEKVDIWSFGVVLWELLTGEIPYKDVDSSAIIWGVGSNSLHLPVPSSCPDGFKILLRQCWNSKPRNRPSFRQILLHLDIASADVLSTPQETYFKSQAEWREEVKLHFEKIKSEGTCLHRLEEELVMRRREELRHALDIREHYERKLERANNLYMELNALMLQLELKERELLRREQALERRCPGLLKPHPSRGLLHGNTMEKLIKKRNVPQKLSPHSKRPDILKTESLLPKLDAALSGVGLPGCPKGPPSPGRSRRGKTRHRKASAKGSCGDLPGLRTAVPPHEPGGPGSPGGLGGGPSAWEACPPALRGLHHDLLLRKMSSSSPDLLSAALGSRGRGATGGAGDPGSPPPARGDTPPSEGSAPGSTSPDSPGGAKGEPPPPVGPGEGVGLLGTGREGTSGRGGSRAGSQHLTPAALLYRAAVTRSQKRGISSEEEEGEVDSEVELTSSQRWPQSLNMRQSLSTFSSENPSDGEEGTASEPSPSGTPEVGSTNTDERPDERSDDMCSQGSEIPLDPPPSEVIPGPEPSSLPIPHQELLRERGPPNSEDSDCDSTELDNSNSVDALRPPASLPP

CC(=O)N1CCC(c2ccc(C(=O)NC(=N)N)cc2C(F)(F)F)CC1 [BI 9627]
inactive: [1] 96% | [2] 93% | [3] 96% | [4] 100% | [5] 100% | [6] 100% | [7] 100% | [8] 100% | [9] 99% | [10] 100% | [11] 96% | [12] 100% | [13] 100% | [14] 100% | [15] 91% | [16] 96% | [17] 92% | [18] 100% | [19] 100% | [20] 91% | [21] 94% | [22] 100% | [23] 100% | [24] 86% | [25] 98% | [26] 100% | [27] 97% | [28] 92% | [29] 100% | [30] 87% | [31] 100% | [32] 100% | [33] 100% | [34] 80% | [35] 100% | [36] 100% | [37] 95% | [38] 90% | [39] 100% | [40] 100% | [41] 100% | [42] 94% | [43] 100% | [44] 96% | [45] 100%

CC(=O)N1CCC(c2ccc(C(=O)NC3=NCCN3)cc2C(F)(F)F)CC1 [BI 0054]
inactive: [1] 94% | [2] 89% | [3] 70% | [4] 94% | [5] 100% | [6] 100% | [7] 100% | [8] 88% | [9] 100% | [10] 100% | [11] 100% | [12] 87% | [13] 100% | [14] 60% | [15] 100% | [16] 93% | [17] 76% | [18] 78% | [19] 91% | [20] 98% | [21] 100% | [22] 100% | [23] 100% | [24] 100% | [25] 100% | [26] 97% | [27] 89% | [28] 93% | [29] 100% | [30] 90% | [31] 100% | [32] 93% | [33] 100% | [34] 100% | [35] 100% | [36] 100% | [37] 100% | [38] 100% | [39] 99% | [40] 100% | [41] 100% | [42] 100% | [43] 100% | [44] 100% | [45] 68%
